Assay results taken from patent publication US20200055839A1 (priority 2017, published 2020).

The molecules below were run on NL-RLuc virus (assay: Inhibition of HIV replication (NL-RLuc virus, luciferase readout in MT-2 cells)). Conditions: Human immunodeficiency virus 1, MT2, 120 h, MT-2 cells infected with NL-RLuc virus, 5 days of incubation, 10% FBS, at least 2 experiments.
Assay type: cell-based
Excerpt: Inhibition of HIV Replication:
A recombinant NL-RLuc proviral clone was constructed in which a section of the nef gene form NL4-3 was replaced with the Renilla Luciferase gene. This virus is fully infectious and can undergo multiple cycles of replication in cell culture. In addition, the luciferous reporter provides a simple and easy method for quantitating the extent of virus growth and consequently, the antiviral activity of test compounds. The plasmid pNLRLuc contains the proviral NL-Rluc DNA cloned into pUC18 at the PvuII site. The NL-RLuc virus was prepared by transfection of 293T cells with the plasmid pNLRLuc. Transfections were performed using the LipofectAMINE PLUS kit form Invitrogen (Carlsbad, Calif.) according to the manufacturer and the virus generated was titered in MT-2 cells. For susceptibility analyses, the titrated virus was used to infect MT-2 cells in the presence of compound, and after 5 days of incubation, cells were processed and quantitated for virus growth by the amount of expressed luciferase. Assay media was RPMI 1640 supplemented with 10% heat inactivated fetal bovine serum (FBS), 100 units/ml penicillin G/100 units/ml streptomycin, 10 mM HEPES buffer pH 7.55 and 2 mM L-glutamine. The results form at least 2 experiments were used to calculate the EC50 values. Luciferase was quantitated using the Dual Luciferase kit form Promega (Madison, Wis.). Susceptibility of viruses to compounds was determined by incubation in the presence of serial dilutions of the compound. The 50% effective concentration (EC50) was calculated by using the exponential form of the median effect equation where (Fa)=1/[1+(ED50/drug conc.)^m](Johnson V A, Byington R T. Infectivity Assay. In Techniques in HIV Research. ed. Aldovini A, Walker B D. 71-76. New York: Stockton Press. 1990).

| SMILES | EC50 [nM] |
| --- | --- |
| Cc1cc(-c2cnc(C)c([C@H](OC(C)(C)C)C(=O)O)c2N2CCC(C)(C)CC2)nnc1OCCc1ccc(F)cc1 [Example 268, (S)-2-(tert-Butoxy)-2-(4-(4,4-dimethylpiperidin-1-yl)-5-(6-(4-fluorophenethoxy)-5-methylpyridazin-3-yl)-2-methylpyridin-3-yl)acetic acid] | 50 |
| Cc1ncc(-c2ccc(OCCC(C)C)cc2)c(N2CCC(C)(C)CC2)c1[C@H](OC(C)(C)C)C(=O)O [Example 361, (2S)-2-(tert-butoxy)-2-[4-(4,4-dimethylpiperidin-1-yl)-2-methyl-5-[4-(3-methylbutoxy)phenyl]pyridin-3-yl]acetic acid] | 4 |
| COc1cc(F)c(F)c(-c2cnc(C)c([C@H](OC(C)(C)C)C(=O)O)c2N2CCC(C)(C)CC2)c1 [Example 157, (2S)-2-(tert-Butoxy)-2-[5-(2,3-difluoro-5-methoxyphenyl)-4-(4,4-dimethylpiperidin-1-yl)-2-methylpyridin-3-yl]acetic acid] | 22 |
| Cc1nc(C(C)O)c(-c2ccc(OCCc3ccc(F)cc3)c(F)c2)c(N2CCC(C)(C)CC2)c1[C@H](OC(C)(C)C)C(=O)O (single isomer, unassigned) [Example 236] | 2 |
| COc1c(F)cc(-c2c(CN3CCC3)nc(C)c([C@H](OC(C)(C)C)C(=O)O)c2N2CCC(C)(C)CC2)cc1F [Example 196, (2S)-2-{6-[(Azetidin-1-yl)methyl]-5-(3,5-difluoro-4-methoxyphenyl)-4-(4,4-dimethylpiperidin-1-yl)-2-methylpyridin-3-yl}-2-(tert-butoxy)acetic acid] | 19 |
| Cc1nc(NCc2ccn[nH]2)c(-c2ccc(OCCc3ccc(F)cc3)cc2)c(N2CCC(C)(C)CC2)c1[C@H](OC(C)(C)C)C(=O)O [Example 30, (S)-2-(6-(((1H-Pyrazol-5-yl)methyl)amino)-4-(4,4-dimethylpiperidin-1-yl)-5-(4-(4-fluorophenethoxy)phenyl)-2-methylpyridin-3-yl)-2-(tert-butoxy)acetic acid] | 2 |
| Cc1nc(Nc2ncccn2)c(-c2ccc(OCCc3ccc(F)cc3)c(F)c2)c(N2CCC(C)(C)CC2)c1[C@H](OC(C)(C)C)C(=O)O [Example 105, (S)-2-(tert-Butoxy)-2-(4-(4,4-dimethylpiperidin-1-yl)-5-(3-fluoro-4-(4-fluorophenethoxy)phenyl)-2-methyl-6-(pyrimidin-2-ylamino)pyridin-3-yl)acetic acid] | 4 |
| Cc1ncc(-c2cccc(C(=O)O)c2)c(N2CCC(C)(C)CC2)c1[C@H](OC(C)(C)C)C(=O)O [Example 147, 3-{5-[(S)-(tert-butoxy) (carboxy)methyl]-4-(4,4-dimethylpiperidin-1-yl)-6-methylpyridin-3-yl}benzoic acid] | 328 |
| Cc1nc(NCc2ccccn2)c(-c2ccc(OCCc3ccc(F)cc3)cc2)c(N2CCC(C)(C)CC2)c1[C@H](OC(C)(C)C)C(=O)O [Example 97, (S)-2-(tert-Butoxy)-2-(4-(4,4-dimethylpiperidin-1-yl)-5-(4-(4-fluorophenethoxy)phenyl)-2-methyl-6-((pyridin-2-ylmethyl)amino)pyridin-3-yl)acetic acid] | 5 |
| Cc1ncc(-c2ccc(OCc3cccc(F)c3)cn2)c(N2CCC(C)(C)CC2)c1[C@H](OC(C)(C)C)C(=O)O [Example 343, (2S)-2-(tert-butoxy)-2-[4′-(4,4-dimethylpiperidin-1-yl)-5-[(3-fluorophenyl)methoxy]-6′-methyl-[2,3′-bipyridine]-5′-yl]acetic acid] | 2 |
| Cc1cc(F)ccc1CCOc1ccc(-c2cnc(C)c([C@H](OC(C)(C)C)C(=O)O)c2N2CCC(C)(C)CC2)nc1 [Example 286, (S)-2-(tert-Butoxy)-2-(4′-(4,4-dimethylpiperidin-1-yl)-5-(4-fluoro-2-methylphenethoxy)-6′-methyl-[2, 3′-bipyridin]-5′-yl)acetic acid] | 1 |
| CC1(C)CCN(c2c(-c3ccc(OCCc4ccc(F)cc4)cn3)cnc(CO)c2[C@H](OC(C)(C)C)C(=O)O)CC1 [Example 269, (S)-2-(tert-Butoxy)-2-(4′-(4,4-dimethylpiperidin-1-yl)-5-(4-fluorophenethoxy)-6′-(hydroxymethyl)-[2, 3′-bipyridin]-5′-yl)acetic acid] | 9 |
| Cc1ncc(-c2ccc(OCCc3ccc(F)cc3)nn2)c(N2CCC(C)(C)CC2)c1[C@H](OC(C)(C)C)C(=O)O [Example 17, (S)-2-(tert-Butoxy)-2-(4-(4,4-dimethylpiperidin-1-yl)-5-(6-(4-fluorophenethoxy)pyridazin-3-yl)-2-methylpyridin-3-yl)acetic acid] | 85 |
| Cc1ncc(-c2ccc(OCCc3ccccc3F)cn2)c(N2CCC(C)(C)CC2)c1[C@H](OC(C)(C)C)C(=O)O [Example 303, (2S)-2-(tert-butoxy)-2-[4′-(4,4-dimethylpiperidin-1-yl)-5-[2-(2-fluorophenyl)ethoxy]-6′-methyl-[2,3′-bipyridine]-5′-yl]acetic acid] | 0.6 |
| Cc1[nH]c(=O)c([C@H](OC(C)(C)C)C(=O)O)c(N2CCC(C)(C)CC2)c1-c1ccc(OCCc2ccc(F)cc2)cc1 [Example 4, (S)-2-(tert-butoxy)-2-(4-(4,4-dimethylpiperidin-1-yl)-5-(4-(4-fluorophenethoxy)phenyl)-6-methyl-2-oxo-1,2-dihydropyridin-3-yl)acetic acid] | 8 |
| Cc1nc(NCC2CCN(C)CC2)c(-c2ccc(OCCc3ccc(F)cc3)cc2)c(N2CCC(C)(C)CC2)c1[C@H](OC(C)(C)C)C(=O)O [Example 42, (S)-2-(tert-Butoxy)-2-(4-(4,4-dimethylpiperidin-1-yl)-5-(4-(4-fluorophenethoxy)phenyl)-2-methyl-6-(((1-methylpiperidin-4-yl)methyl)amino)pyridin-3-yl)acetic acid] | 3 |
| Cc1ncc(-c2cnc(OCCc3ccc(F)c(Cl)c3)c(F)c2)c(N2CCC(C)(C)CC2)c1[C@H](OC(C)(C)C)C(=O)O [Example 403, (2S)-2-(tert-butoxy)-2-{6′-[2-(3-chloro-4-fluorophenyl)ethoxy]-4-(4,4-dimethylpiperidin-1-yl)-5′-fluoro-6-methyl-[3,3′-bipyridine]-5-yl}acetic acid] | 2 |
| CC1(C)CCN(c2c(-c3ccc(OCCc4ccc(F)cc4)c(F)c3)c(N)nc(Cl)c2[C@H](OC(C)(C)C)C(=O)O)CC1 [Example 209, (S)-2-(6-Amino-2-chloro-4-(4,4-dimethylpiperidin-1-yl)-5-(3-fluoro-4-(4-fluorophenethoxy)phenyl)pyridin-3-yl)-2-(tert-butoxy)acetic acid] | 4 |
| Cc1ncc(-c2ccc(OCCCC(C)(C)C)cn2)c(N2CCC(C)(C)CC2)c1[C@H](OC(C)(C)C)C(=O)O [Example 351, (2S)-2-(tert-butoxy)-2-{5-[(4,4-dimethylpentyl)oxy]-4′-(4,4-dimethylpiperidin-1-yl)-6′-methyl-[2,3′-bipyridine]-5′-yl}acetic acid] | 0.8 |
| COc1c(F)cccc1-c1cnc(C)c([C@H](OC(C)(C)C)C(=O)O)c1N1CCC(C)(C)CC1 [Example 166, (2S)-2-(tert-Butoxy)-2-[4-(4,4-dimethylpiperidin-1-yl)-5-(3-fluoro-2-methoxyphenyl)-2-methylpyridin-3-yl]acetic acid] | 11 |
| C=Cc1nc(C)c(-c2ccc(OCCc3ccc(F)cc3)cc2)c(N2CCC(C)(C)CC2)c1[C@H](OC(C)(C)C)C(=O)O [Example 1, (S)-2-(tert-Butoxy)-2-(4-(4,4-dimethylpiperidin-1-yl)-5-(4-(4-fluorophenethoxy)phenyl)-6-methyl-2-vinylpyridin-3-yl)acetic acid] | 20 |
| Cc1ncc(-c2ccc(OCCc3ccc(F)cc3)c(C#N)c2)c(N2CCC(C)(C)CC2)c1[C@H](OC(C)(C)C)C(=O)O [Example 256, (S)-2-(tert-Butoxy)-2-(5-(3-cyano-4-(4-fluorophenethoxy)phenyl)-4-(4,4-dimethylpiperidin-1-yl)-2-methylpyridin-3-yl)acetic acid] | 0.8 |
| Cc1nc(NCCN2CCCCC2)c(-c2ccc(OCCc3ccc(F)cc3)cc2)c(N2CCC(C)(C)CC2)c1[C@H](OC(C)(C)C)C(=O)O [Example 29, (S)-2-(tert-Butoxy)-2-(4-(4,4-dimethylpiperidin-1-yl)-5-(4-(4-fluorophenethoxy)phenyl)-2-methyl-6-((2-(piperidin-1-yl)ethyl)amino)pyridin-3-yl)acetic acid] | 0.2 |

Same assay, conditions: MT-2 cells infected with NL-RLuc virus, 5 days of incubation, 10% FBS, at least 2 experiments

| SMILES | EC50 [nM] |
| --- | --- |
| Cc1nc(Nc2ccnc(F)c2)c(-c2ccc(OCCc3ccc(F)cc3)cc2)c(N2CCC(C)(C)CC2)c1[C@H](OC(C)(C)C)C(=O)O [Example 95, (S)-2-(tert-Butoxy)-2-(4-(4,4-dimethylpiperidin-1-yl)-5-(4-(4-fluorophenethoxy)phenyl)-6-((2-fluoropyridin-4-yl)amino)-2-methylpyridin-3-yl)acetic acid] | 8 |
